Data from the kinase profiling compilation of Christmann-Franck et al. (2016).

Experiments:
Assay in all cases: radiometric filter-binding kinase assay
HIPK3 (human) = HIPK3 (human) (UniProt Q9H422)
MST4 (human) = MST4 (human) (UniProt Q9P289)
[1] = system: AKT1 (human), P31749 [S473D]
MAP3K1 (human) = MAP3K1 (human) (UniProt Q13233)
MARK4 (human) = MARK4 (human) (UniProt Q96L34)
MAP3K7 TAB1 (human) = MAP3K7 TAB1 (human) (UniProt Q15750+O43318)
MARK2 (human) = MARK2 (human) (UniProt Q7KZI7)
MAPKAPK2 (human) = MAPKAPK2 (human) (UniProt P49137)
ERBB4 (human) = ERBB4 (human) (UniProt Q15303)
PRKCZ (human) = PRKCZ (human) (UniProt Q05513)
EPHB3 (human) = EPHB3 (human) (UniProt P54753)
INSR (human) = INSR (human) (UniProt P06213)
NTRK1 (human) = NTRK1 (human) (UniProt P04629)
MAP2K6 (human) = MAP2K6 (human) (UniProt P52564)
AURKA (human) = AURKA (human) (UniProt O14965)
DYRK2 (human) = DYRK2 (human) (UniProt Q92630)
MAP3K11 (human) = MAP3K11 (human) (UniProt Q16584)
PAK4 (human) = PAK4 (human) (UniProt O96013)
IRAK4 (human) = IRAK4 (human) (UniProt Q9NWZ3)
MAP2K2 (human) = MAP2K2 (human) (UniProt P36507)
PIM1 (human) = PIM1 (human) (UniProt P11309)
PRKCA (human) = PRKCA (human) (UniProt P17252)
BRSK1 (human) = BRSK1 (human) (UniProt Q8TDC3)
PKN2 (human) = PKN2 (human) (UniProt Q16513)
EPHA2 (human) = EPHA2 (human) (UniProt P29317)
PAK6 (human) = PAK6 (human) (UniProt Q9NQU5)
GSK3B (human) = GSK3B (human) (UniProt P49841)
MELK (human) = MELK (human) (UniProt Q14680)
MAP3K5 (human) = MAP3K5 (human) (UniProt Q99683)
MAPK9 (human) = MAPK9 (human) (UniProt P45984)
MAP3K9 (human) = MAP3K9 (human) (UniProt P80192)
MARK1 (human) = MARK1 (human) (UniProt Q9P0L2)
NUAK1 (human) = NUAK1 (human) (UniProt O60285)
MAPK12 (human) = MAPK12 (human) (UniProt P53778)
EEF2K (human) = EEF2K (human) (UniProt O00418)
[2] = molecular target: STK11 CAB39 STRADA (human) (UniProt Q9Y376+Q7RTN6+Q15831)

MAPKAPK2 (human), sequence (P49137 whole entry, looked up): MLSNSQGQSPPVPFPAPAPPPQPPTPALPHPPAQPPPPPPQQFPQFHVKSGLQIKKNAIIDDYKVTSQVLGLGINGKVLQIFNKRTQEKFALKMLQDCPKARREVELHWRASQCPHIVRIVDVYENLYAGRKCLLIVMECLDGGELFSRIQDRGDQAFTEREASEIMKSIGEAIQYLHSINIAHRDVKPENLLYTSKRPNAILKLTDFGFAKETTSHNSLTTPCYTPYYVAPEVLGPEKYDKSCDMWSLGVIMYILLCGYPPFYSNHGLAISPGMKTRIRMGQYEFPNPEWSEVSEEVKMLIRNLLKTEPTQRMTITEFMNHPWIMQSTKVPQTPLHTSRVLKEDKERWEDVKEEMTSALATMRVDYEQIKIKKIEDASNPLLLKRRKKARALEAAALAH
MAP3K9 (human), sequence (P80192 whole entry, looked up): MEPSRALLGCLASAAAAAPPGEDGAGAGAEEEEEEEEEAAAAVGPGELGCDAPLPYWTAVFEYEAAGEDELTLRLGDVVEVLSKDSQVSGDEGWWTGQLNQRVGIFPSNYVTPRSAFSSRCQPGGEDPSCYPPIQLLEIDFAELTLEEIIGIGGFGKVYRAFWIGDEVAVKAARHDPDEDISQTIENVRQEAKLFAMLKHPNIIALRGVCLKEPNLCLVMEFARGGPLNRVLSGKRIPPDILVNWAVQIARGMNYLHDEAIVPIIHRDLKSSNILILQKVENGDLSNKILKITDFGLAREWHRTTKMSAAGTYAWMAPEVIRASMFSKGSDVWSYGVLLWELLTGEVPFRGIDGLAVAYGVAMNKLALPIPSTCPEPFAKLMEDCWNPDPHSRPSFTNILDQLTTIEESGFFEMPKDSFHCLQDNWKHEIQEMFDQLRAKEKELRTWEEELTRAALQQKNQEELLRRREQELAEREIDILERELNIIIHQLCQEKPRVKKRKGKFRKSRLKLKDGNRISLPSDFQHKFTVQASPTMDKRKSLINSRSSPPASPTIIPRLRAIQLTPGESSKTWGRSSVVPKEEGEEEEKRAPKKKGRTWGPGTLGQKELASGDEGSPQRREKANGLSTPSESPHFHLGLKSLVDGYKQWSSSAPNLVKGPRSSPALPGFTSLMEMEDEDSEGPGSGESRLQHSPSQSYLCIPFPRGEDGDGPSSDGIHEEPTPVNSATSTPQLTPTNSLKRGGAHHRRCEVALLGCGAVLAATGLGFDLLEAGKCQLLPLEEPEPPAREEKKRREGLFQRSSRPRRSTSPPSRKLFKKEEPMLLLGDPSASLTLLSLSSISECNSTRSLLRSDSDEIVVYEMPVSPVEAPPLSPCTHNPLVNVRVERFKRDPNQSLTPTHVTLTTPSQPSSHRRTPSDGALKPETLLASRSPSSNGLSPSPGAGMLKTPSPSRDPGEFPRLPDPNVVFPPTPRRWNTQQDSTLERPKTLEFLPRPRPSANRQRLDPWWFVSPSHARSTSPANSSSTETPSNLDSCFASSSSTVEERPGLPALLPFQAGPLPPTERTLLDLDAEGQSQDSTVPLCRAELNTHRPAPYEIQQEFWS
MAPK9 (human), sequence (P45984 whole entry, looked up): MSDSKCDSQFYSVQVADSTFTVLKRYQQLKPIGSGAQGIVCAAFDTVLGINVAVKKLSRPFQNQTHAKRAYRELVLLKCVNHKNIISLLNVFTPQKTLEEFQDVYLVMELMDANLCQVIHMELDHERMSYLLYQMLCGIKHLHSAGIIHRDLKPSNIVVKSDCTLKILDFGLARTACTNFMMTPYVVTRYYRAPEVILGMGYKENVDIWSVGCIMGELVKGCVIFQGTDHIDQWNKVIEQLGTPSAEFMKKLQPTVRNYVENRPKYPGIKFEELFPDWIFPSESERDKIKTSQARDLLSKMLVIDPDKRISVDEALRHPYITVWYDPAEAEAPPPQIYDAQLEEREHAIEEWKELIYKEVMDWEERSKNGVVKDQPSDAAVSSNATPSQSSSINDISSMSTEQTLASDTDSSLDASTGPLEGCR
ERBB4 (human), sequence (Q15303 whole entry, looked up): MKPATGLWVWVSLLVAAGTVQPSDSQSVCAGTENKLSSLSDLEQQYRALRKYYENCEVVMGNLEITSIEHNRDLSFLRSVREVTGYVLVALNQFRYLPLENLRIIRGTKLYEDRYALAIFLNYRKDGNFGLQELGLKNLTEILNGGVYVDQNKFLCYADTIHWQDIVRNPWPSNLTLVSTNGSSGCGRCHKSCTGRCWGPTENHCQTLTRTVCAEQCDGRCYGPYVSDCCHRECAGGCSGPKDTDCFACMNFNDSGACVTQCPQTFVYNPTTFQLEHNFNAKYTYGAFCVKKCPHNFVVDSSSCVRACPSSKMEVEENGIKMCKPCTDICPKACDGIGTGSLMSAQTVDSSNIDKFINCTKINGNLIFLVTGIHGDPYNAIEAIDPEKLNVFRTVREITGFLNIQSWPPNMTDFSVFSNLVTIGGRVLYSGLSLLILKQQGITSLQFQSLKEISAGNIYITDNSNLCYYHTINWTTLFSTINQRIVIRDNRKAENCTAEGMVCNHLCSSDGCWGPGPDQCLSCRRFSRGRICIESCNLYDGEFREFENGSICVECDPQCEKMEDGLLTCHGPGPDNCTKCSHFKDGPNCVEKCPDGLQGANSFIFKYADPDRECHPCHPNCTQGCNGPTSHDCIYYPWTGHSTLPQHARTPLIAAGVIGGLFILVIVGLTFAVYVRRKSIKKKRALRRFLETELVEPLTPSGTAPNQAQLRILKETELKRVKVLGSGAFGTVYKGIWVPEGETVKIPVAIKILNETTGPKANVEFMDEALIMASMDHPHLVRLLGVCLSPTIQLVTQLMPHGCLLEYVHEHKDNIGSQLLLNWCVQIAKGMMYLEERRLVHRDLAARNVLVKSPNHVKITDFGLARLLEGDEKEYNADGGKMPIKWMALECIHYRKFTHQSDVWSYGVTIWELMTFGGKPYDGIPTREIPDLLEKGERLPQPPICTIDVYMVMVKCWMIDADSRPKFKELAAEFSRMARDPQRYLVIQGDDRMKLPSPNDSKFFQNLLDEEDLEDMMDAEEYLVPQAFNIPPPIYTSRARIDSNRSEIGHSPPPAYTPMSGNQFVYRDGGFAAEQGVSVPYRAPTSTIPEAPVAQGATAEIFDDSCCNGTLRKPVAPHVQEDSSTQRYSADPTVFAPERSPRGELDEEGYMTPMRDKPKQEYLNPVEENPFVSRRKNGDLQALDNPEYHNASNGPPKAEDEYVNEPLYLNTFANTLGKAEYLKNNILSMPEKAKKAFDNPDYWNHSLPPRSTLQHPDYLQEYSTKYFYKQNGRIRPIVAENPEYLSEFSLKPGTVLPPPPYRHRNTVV
EPHB3 (human), sequence (P54753 whole entry, looked up): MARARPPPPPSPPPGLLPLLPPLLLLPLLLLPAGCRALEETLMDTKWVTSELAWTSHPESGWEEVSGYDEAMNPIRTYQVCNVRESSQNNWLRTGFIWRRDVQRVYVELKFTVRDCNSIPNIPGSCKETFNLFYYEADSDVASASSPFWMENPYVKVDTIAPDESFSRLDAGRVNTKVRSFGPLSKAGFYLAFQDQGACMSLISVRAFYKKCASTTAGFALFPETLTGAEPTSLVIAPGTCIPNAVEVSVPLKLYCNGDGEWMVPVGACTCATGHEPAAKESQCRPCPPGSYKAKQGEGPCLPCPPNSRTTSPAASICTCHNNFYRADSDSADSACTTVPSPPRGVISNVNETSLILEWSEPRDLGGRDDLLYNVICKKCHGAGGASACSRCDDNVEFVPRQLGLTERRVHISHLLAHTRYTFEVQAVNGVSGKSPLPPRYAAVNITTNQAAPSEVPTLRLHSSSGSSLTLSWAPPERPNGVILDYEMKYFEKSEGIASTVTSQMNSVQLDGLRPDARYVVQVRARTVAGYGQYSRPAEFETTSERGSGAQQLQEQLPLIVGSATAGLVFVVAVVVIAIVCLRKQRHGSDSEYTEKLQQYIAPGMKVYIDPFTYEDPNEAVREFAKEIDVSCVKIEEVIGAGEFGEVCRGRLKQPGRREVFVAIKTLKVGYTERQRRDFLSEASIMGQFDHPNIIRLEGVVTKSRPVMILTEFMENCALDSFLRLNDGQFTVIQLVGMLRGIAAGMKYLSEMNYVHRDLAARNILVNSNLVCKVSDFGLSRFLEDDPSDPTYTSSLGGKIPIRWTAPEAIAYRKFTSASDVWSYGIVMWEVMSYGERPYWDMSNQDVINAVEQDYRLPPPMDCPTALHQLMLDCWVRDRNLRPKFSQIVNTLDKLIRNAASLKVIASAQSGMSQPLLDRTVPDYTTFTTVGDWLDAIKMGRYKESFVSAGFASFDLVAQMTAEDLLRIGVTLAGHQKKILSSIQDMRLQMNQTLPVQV
MAPK12 (human), sequence (P53778 whole entry, looked up): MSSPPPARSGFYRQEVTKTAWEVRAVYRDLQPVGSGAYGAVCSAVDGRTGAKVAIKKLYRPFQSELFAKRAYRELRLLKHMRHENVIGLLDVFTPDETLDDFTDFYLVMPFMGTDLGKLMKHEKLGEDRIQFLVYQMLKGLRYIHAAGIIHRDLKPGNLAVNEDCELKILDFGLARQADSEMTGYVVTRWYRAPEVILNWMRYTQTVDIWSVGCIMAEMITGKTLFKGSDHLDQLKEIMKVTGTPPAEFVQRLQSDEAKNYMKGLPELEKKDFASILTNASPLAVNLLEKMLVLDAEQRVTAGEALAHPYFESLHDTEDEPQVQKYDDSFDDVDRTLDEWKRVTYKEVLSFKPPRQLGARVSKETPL
IRAK4 (human), sequence (Q9NWZ3 whole entry, looked up): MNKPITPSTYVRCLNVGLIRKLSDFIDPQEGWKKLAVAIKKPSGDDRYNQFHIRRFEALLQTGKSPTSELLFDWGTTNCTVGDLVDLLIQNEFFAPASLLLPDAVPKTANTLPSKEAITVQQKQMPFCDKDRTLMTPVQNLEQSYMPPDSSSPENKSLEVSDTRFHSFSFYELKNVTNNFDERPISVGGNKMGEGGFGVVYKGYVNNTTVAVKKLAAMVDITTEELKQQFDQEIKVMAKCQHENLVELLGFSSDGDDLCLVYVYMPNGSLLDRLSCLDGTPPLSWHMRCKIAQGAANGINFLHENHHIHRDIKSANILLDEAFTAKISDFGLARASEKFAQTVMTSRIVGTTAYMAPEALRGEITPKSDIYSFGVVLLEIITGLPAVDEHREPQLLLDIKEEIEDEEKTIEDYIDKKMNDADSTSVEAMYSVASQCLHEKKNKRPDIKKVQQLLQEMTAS

## COc1ccc(-n2ncc3cnc(Nc4cc(OC)c(OC)c(OCCCN5CCN(C)CC5)c4)nc32)cc1
HIPK3 (human); compound 0.1 µM
  residual activity: 69%
HIPK3 (human); compound 1.0 µM
  residual activity: 19%
MST4 (human); compound 0.1 µM
  residual activity: 90%
MST4 (human); compound 1.0 µM
  residual activity: 67%
[1]; compound 0.1 µM
  residual activity: 99%
[1]; compound 1.0 µM
  residual activity: 89%
MAP3K1 (human); compound 0.1 µM
  residual activity: 103%
MAP3K1 (human); compound 1.0 µM
  residual activity: 92%
MARK4 (human); compound 1.0 µM
  residual activity: 24%
MAP3K7 TAB1 (human); compound 0.1 µM
  residual activity: 14%
MAP3K7 TAB1 (human); compound 1.0 µM
  residual activity: 19%
MARK2 (human); compound 0.1 µM
  residual activity: 67%
MARK2 (human); compound 1.0 µM
  residual activity: 28%
MAPKAPK2 (human); compound 1.0 µM
  residual activity: 108%
ERBB4 (human); compound 0.1 µM
  residual activity: 60%
ERBB4 (human); compound 1.0 µM
  residual activity: 17%
PRKCZ (human); compound 1.0 µM
  residual activity: 78%
EPHB3 (human); compound 0.1 µM
  residual activity: 86%
EPHB3 (human); compound 1.0 µM
  residual activity: 16%
INSR (human); compound 0.1 µM
  residual activity: 79%
INSR (human); compound 1.0 µM
  residual activity: 21%
NTRK1 (human); compound 0.1 µM
  residual activity: 32%
NTRK1 (human); compound 1.0 µM
  residual activity: 11%
MAP2K6 (human); compound 0.1 µM
  residual activity: 99%
MAP2K6 (human); compound 1.0 µM
  residual activity: 75%
AURKA (human); compound 0.1 µM
  residual activity: 18%
AURKA (human); compound 1.0 µM
  residual activity: 3%
DYRK2 (human); compound 0.1 µM
  residual activity: 50%
DYRK2 (human); compound 1.0 µM
  residual activity: 16%
MAP3K11 (human); compound 0.1 µM
  residual activity: 15%
MAP3K11 (human); compound 1.0 µM
  residual activity: 8%
PAK4 (human); compound 0.1 µM
  residual activity: 29%
PAK4 (human); compound 1.0 µM
  residual activity: 9%
IRAK4 (human); compound 0.1 µM
  residual activity: 64%
IRAK4 (human); compound 1.0 µM
  residual activity: 20%
MAP2K2 (human); compound 0.1 µM
  residual activity: 55%
MAP2K2 (human); compound 1.0 µM
  residual activity: 28%
PIM1 (human); compound 0.1 µM
  residual activity: 96%
PIM1 (human); compound 1.0 µM
  residual activity: 62%
PRKCA (human); compound 0.1 µM
  residual activity: 95%
PRKCA (human); compound 1.0 µM
  residual activity: 56%
BRSK1 (human); compound 0.1 µM
  residual activity: 74%
BRSK1 (human); compound 1.0 µM
  residual activity: 17%
PKN2 (human); compound 0.1 µM
  residual activity: 57%
PKN2 (human); compound 1.0 µM
  residual activity: 27%
EPHA2 (human); compound 0.1 µM
  residual activity: 28%
PAK6 (human); compound 0.1 µM
  residual activity: 62%
PAK6 (human); compound 1.0 µM
  residual activity: 24%
GSK3B (human); compound 0.1 µM
  residual activity: 37%
GSK3B (human); compound 1.0 µM
  residual activity: 6%
MELK (human); compound 0.1 µM
  residual activity: 37%
MELK (human); compound 1.0 µM
  residual activity: 27%
MAP3K5 (human); compound 0.1 µM
  residual activity: 99%
MAP3K5 (human); compound 1.0 µM
  residual activity: 77%
MAPK9 (human); compound 1.0 µM
  residual activity: 33%
MAP3K9 (human); compound 0.1 µM
  residual activity: 7%
MAP3K9 (human); compound 1.0 µM
  residual activity: 6%
MARK1 (human); compound 0.1 µM
  residual activity: 63%
MARK1 (human); compound 1.0 µM
  residual activity: 31%
NUAK1 (human); compound 0.1 µM
  residual activity: 16%
NUAK1 (human); compound 1.0 µM
  residual activity: 13%
MAPK12 (human); compound 0.1 µM
  residual activity: 113%
MAPK12 (human); compound 1.0 µM
  residual activity: 95%
EEF2K (human); compound 0.1 µM
  residual activity: 100%
EEF2K (human); compound 1.0 µM
  residual activity: 91%
[2]; compound 0.1 µM
  residual activity: 119%
[2]; compound 1.0 µM
  residual activity: 73%

## NS(=O)(=O)OC[C@@H]1C[C@@H](n2ccc3c(N[C@H]4CCc5ccccc54)ncnc32)C[C@@H]1O
HIPK3 (human); compound 1.0 µM
  residual activity: 84%
HIPK3 (human); compound 10.0 µM
  residual activity: 89%
MST4 (human); compound 1.0 µM
  residual activity: 83%
MST4 (human); compound 10.0 µM
  residual activity: 88%
[1]; compound 1.0 µM
  residual activity: 118%
[1]; compound 10.0 µM
  residual activity: 119%
MAP3K1 (human); compound 10.0 µM
  residual activity: 107%
MARK4 (human); compound 1.0 µM
  residual activity: 93%
MARK4 (human); compound 10.0 µM
  residual activity: 103%
MAP3K7 TAB1 (human); compound 1.0 µM
  residual activity: 107%
MAP3K7 TAB1 (human); compound 10.0 µM
  residual activity: 105%
MARK2 (human); compound 1.0 µM
  residual activity: 90%
MARK2 (human); compound 10.0 µM
  residual activity: 88%
MAPKAPK2 (human); compound 1.0 µM
  residual activity: 88%
MAPKAPK2 (human); compound 10.0 µM
  residual activity: 93%
ERBB4 (human); compound 1.0 µM
  residual activity: 110%
ERBB4 (human); compound 10.0 µM
  residual activity: 116%
PRKCZ (human); compound 10.0 µM
  residual activity: 96%
EPHB3 (human); compound 10.0 µM
  residual activity: 129%
INSR (human); compound 1.0 µM
  residual activity: 89%
INSR (human); compound 10.0 µM
  residual activity: 93%
NTRK1 (human); compound 10.0 µM
  residual activity: 92%
MAP2K6 (human); compound 1.0 µM
  residual activity: 95%
MAP2K6 (human); compound 10.0 µM
  residual activity: 94%
AURKA (human); compound 1.0 µM
  residual activity: 103%
AURKA (human); compound 10.0 µM
  residual activity: 97%
DYRK2 (human); compound 1.0 µM
  residual activity: 93%
DYRK2 (human); compound 10.0 µM
  residual activity: 92%
MAP3K11 (human); compound 1.0 µM
  residual activity: 92%
MAP3K11 (human); compound 10.0 µM
  residual activity: 92%
PAK4 (human); compound 1.0 µM
  residual activity: 101%
PAK4 (human); compound 10.0 µM
  residual activity: 106%
IRAK4 (human); compound 10.0 µM
  residual activity: 99%
MAP2K2 (human); compound 1.0 µM
  residual activity: 104%
MAP2K2 (human); compound 10.0 µM
  residual activity: 99%
PIM1 (human); compound 10.0 µM
  residual activity: 103%
PRKCA (human); compound 10.0 µM
  residual activity: 88%
BRSK1 (human); compound 1.0 µM
  residual activity: 89%
PKN2 (human); compound 1.0 µM
  residual activity: 90%
PKN2 (human); compound 10.0 µM
  residual activity: 92%
EPHA2 (human); compound 10.0 µM
  residual activity: 105%
PAK6 (human); compound 1.0 µM
  residual activity: 94%
PAK6 (human); compound 10.0 µM
  residual activity: 91%
GSK3B (human); compound 1.0 µM
  residual activity: 93%
GSK3B (human); compound 10.0 µM
  residual activity: 98%
MELK (human); compound 1.0 µM
  residual activity: 87%
MELK (human); compound 10.0 µM
  residual activity: 91%
MAP3K5 (human); compound 1.0 µM
  residual activity: 87%
MAP3K5 (human); compound 10.0 µM
  residual activity: 87%
MAPK9 (human); compound 1.0 µM
  residual activity: 83%
MAPK9 (human); compound 10.0 µM
  residual activity: 88%
MAP3K9 (human); compound 1.0 µM
  residual activity: 82%
MAP3K9 (human); compound 10.0 µM
  residual activity: 88%
MARK1 (human); compound 1.0 µM
  residual activity: 100%
MARK1 (human); compound 10.0 µM
  residual activity: 107%
NUAK1 (human); compound 1.0 µM
  residual activity: 98%
NUAK1 (human); compound 10.0 µM
  residual activity: 96%
MAPK12 (human); compound 1.0 µM
  residual activity: 101%
MAPK12 (human); compound 10.0 µM
  residual activity: 95%
EEF2K (human); compound 1.0 µM
  residual activity: 100%
EEF2K (human); compound 10.0 µM
  residual activity: 107%
[2]; compound 1.0 µM
  residual activity: 127%
[2]; compound 10.0 µM
  residual activity: 104%
